Source: patent publication US20170066712A1, “NOVEL MOLECULES THAT SELECTIVELY INHIBIT HISTONE DEACETYLASE 6 RELATIVE TO HISTONE DEACETYLASE” (The Trustees of Columbia University in the City of New York, priority 2011, published 2017)

Tests used:
[1] = tested on: acetylated alpha-tubulin; test: Accumulation of acetylated alpha-tubulin in LNCaP cells (blot); type: cell-based, human; conditions: for identified as HDAC6-selective inhibitor: on the basis of accumulation of acetylated tubulin without accumulation of acetylated histones
Excerpt: (§1) FIG. 2. Blot showing accumulation of acetylated alpha-tubulin and acetylated histone H3 in LNCaP cells cultured with compound 6. GADPH used as loading control.
(§2) Recombinant HDAC1 and HDAC6 are used to evaluate the selective inhibitory potency of each compound. Cell based assays: Normal cells (Human Foreskin Fibroblast cells), LNCaP (human prostate cancer cells), MCF-7 (human breast cancer cells, A549 (human adenocarcinoma of lung cells) and ARP-1 (human multiple myeloma cells) are used in these assays. Cells were cultured for up to 72 hr without and with the potential HDAC6-selective inhibitor. SAHA was used as a control. Cell number and cell viability were determined by enumeration. Proteins were extracted from cells and assayed for accumulation of acetylated tubulin and acetylated histones. All methods are described in Namdar et al., PNAS, 2010, 107:20003-8. In vivo animal studies: Potential HDAC6 inhibitor compounds are further assayed by administration to mice for up to 5 days with daily injections. Animals are sacrificed and tissues are analyzed for accumulation of acetylated tubulin and acetylated histones.

[2] = tested on: LNCaP cells; test: Cell viability assay in LNCaP cells; type: cell-based
Procedure: FIG. 4. Cell viability assay data in LNCaP cells with compound 6.
as §2

[3] = tested on: acetylated histone H3; test: Accumulation of acetylated histone H3 in LNCaP cells (blot); type: cell-based, human; conditions: FIG. 2
Excerpt: as §1, §2

[4] = target: T1, HDAC6 (Homo sapiens, UniProt Q9UBN7); test: Recombinant HDAC1 and HDAC6 selective inhibitory potency; type: biochemical
T1 sequence (Q9UBN7 1-1215): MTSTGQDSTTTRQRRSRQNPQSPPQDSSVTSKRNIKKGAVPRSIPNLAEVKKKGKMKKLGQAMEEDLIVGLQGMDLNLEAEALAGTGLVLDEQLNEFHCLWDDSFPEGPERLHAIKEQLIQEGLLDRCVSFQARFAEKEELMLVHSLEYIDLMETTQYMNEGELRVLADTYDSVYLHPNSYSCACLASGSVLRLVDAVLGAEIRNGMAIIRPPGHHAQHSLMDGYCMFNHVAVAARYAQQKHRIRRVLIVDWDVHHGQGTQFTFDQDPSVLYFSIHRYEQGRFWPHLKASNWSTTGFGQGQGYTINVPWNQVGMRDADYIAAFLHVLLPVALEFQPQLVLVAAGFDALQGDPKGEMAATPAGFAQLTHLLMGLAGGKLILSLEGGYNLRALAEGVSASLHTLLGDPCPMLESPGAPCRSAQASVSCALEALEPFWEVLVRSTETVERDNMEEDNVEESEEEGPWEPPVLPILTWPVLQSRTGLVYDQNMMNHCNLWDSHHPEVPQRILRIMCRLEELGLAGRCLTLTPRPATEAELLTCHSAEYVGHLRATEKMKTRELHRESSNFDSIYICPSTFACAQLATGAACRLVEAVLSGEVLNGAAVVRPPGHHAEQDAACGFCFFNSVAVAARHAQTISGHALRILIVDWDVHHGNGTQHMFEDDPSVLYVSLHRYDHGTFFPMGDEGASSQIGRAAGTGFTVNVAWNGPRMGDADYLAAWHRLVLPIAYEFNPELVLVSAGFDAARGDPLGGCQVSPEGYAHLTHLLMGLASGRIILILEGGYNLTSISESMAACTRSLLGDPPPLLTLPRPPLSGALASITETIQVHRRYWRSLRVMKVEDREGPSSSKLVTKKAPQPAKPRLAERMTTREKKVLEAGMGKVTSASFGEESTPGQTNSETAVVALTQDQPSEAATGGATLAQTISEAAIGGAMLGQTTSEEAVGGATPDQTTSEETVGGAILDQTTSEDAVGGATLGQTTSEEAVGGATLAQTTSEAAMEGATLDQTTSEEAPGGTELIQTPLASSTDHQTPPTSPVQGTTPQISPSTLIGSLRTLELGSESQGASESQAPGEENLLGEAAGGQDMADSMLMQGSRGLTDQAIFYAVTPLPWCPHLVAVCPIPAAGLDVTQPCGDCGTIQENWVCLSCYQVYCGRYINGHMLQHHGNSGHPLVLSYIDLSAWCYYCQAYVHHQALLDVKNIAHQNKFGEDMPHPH
Procedure: as §2

[5] = tested on: LNCaP cells; test: Cell growth assay in LNCaP cells; type: cell-based, human; conditions: FIG. 3
Procedure: FIG. 3. Cell growth assay data in LNCaP cells with compound 6.
as §2

[6] = tested on: known human HDACs; conditions: background statement; cited from earlier work
[7] = tested on: cell motility; conditions: Haggarty et al. (6); cited from earlier work
[8] = tested on: microtubules; conditions: Haggarty et al. (6); cited from earlier work
[9] = target: T2, C-terminal catalytic domain of HDAC6 (Homo sapiens, UniProt Q9UBN7); conditions: Haggarty et al. (6); cited from earlier work
T2 sequence (Q9UBN7 1-1215): T1 sequence (Q9UBN7 1-1215)

| SMILES | HDAC inhibitor selectivity for HDAC6 relative to HDAC1 [4] | other results |
| --- | --- | --- |
| O=C(NO)c1ccc(CC(=O)N(CCO)c2ccccc2)cc1 [Compound 6, N-hydroxy-4-(2-((2-hydroxyethyl)(phenyl)amino)-2-oxoethyl) benzamide] | selective for HDAC6 relative to HDAC1 | levels of tubulin acetylation ([1]; LNCaP cells, FIG. 2): significant levels of tubulin acylation were present; levels of tubulin acetylation reached in the absence of histone acetylation, compared with tubacin ([1]; in the absence of histone acetylation): greater than selective levels with tubacin; identified as HDAC6-selective inhibitor [1]: HDAC6-selective inhibitors; cell viability ([2]; FIG. 4): does not decrease cell viability; death of LNCaP cells ([2]; concentrations as high as 32 μM): no detectable death of LNCaP cells; induction of H3 acetylation [3]: without induction of H3 acetylation; cell number [5]: inhibits cell number |
| O=C(NO)c1ccc(CC(=O)N(CCO)c2cccc3cccnc23)cc1 [Compound 14, N-hydroxy-4-(2-((2-hydroxyethyl)(quinolin-8-yl)amino)-2-oxoethyl) benzamide] | selective for HDAC6 relative to HDAC1 | identified as HDAC6-selective inhibitor [1]: HDAC6-selective inhibitors |
| O=C(/C=C/C(=O)Nc1ccc(CC(=O)N(CCO)c2ccccc2)cc1)NO [Compound 21] | selective for HDAC6 relative to HDAC1 | – |
| O=C(NO)Nc1ccc(CC(=O)N(CCO)c2ccccc2)cc1 [Compound 24] | selective for HDAC6 relative to HDAC1 | – |
| O=C(NO)C(=O)Nc1ccc(CC(=O)N(CCO)c2ccccc2)cc1 [Compound 26] | selective for HDAC6 relative to HDAC1 | – |
| O=C(NO)c1ccc(NCC(=O)N(CCO)c2ccccc2)cc1 [Compound 27] | selective for HDAC6 relative to HDAC1 | – |
| O=C(CN(CCO)c1ccccc1)Nc1ccc(C(=O)NO)cc1 [Compound 30] | selective for HDAC6 relative to HDAC1 | – |
| O=C(CC(=O)Nc1ccc(CC(=O)N(CCO)c2ccccc2)cc1)NO [Compound 31] | selective for HDAC6 relative to HDAC1 | – |
| O=C(CN(CCO)c1ccccc1)Oc1ccc(C(=O)NO)cc1 [Compound 32] | selective for HDAC6 relative to HDAC1 | – |
| O=C(NO)c1ccc(C(=O)N(CCO)c2ccccc2)cc1 [Compound 33] | selective for HDAC6 relative to HDAC1 | – |
| O=C(Cc1ccc(C(=O)N(CCO)c2ccccc2)cc1)NO [Compound 34] | selective for HDAC6 relative to HDAC1 | – |
| O=C(CCc1ccc(C(=O)N(CCO)c2ccccc2)cc1)NO [Compound 35] | selective for HDAC6 relative to HDAC1 | – |
| O=C(CCc1ccc(CC(=O)N(CCO)c2ccccc2)cc1)NO [Compound 36] | selective for HDAC6 relative to HDAC1 | – |
| O=C(NO)c1cccc2c1ccn2CC(=O)N(CCO)c1ccccc1 [Compound 37] | selective for HDAC6 relative to HDAC1 | – |
| O=C(NO)c1cccc2c1ncn2CC(=O)N(CCO)c1ccccc1 [Compound 43] | selective for HDAC6 relative to HDAC1 | – |
| O=C(NO)c1cccc(CC(=O)N(CCO)c2ccccc2)c1 [Compound 79, N-hydroxy-3-(2-((2-hydroxyethyl)(phenyl)amino)-2-oxoethyl) benzamide] | selective for HDAC6 relative to HDAC1 | – |
| O=C(CCCCCCC(=O)Nc1ccccc1)NO [SAHA, suberoylanilide hydroxamic acid, reference compound] | – | death of LNCaP cells ([2]; SAHA control): kills LNCaP cells; selectivity of inhibitory activity among known human HDACs [6]: not selective among the known human HDACs |
| O=C(CCCCCCC(=O)Nc1ccc([C@H]2O[C@@H](CSc3nc(-c4ccccc4)c(-c4ccccc4)o3)C[C@@H](c3ccc(CO)cc3)O2)cc1)NO [tubacin] | – | cell motility [7]: decreased cell motility; stability of microtubules [8]: did not affect the stability of microtubules; inhibition of C-terminal catalytic domain of HDAC6 (α-tubulin deacetylation) [9]: can be inhibited |
